PubChem BioAssay (NCI)
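Exposure lasted 48 hours, with cells grown in 96-well plates and compounds tested at five concentrations. Here, GI50 denotes the concentration required for 50% inhibition of growth. TGI marks complete inhibition of growth.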

Experiments:
Experiment in all cases: growth of human tumour cells (NCI), 48 h
BT-549 breast = test system: BT-549 breast
HCC-2998 colon = test system: HCC-2998 colon
HT29 colon = test system: HT29 colon
K-562 leukemia = test system: K-562 leukemia
M14 melanoma = test system: M14 melanoma
MALME-3M melanoma = test system: MALME-3M melanoma
MDA-MB-435 = test system: MDA-MB-435
NCI-H226 lung = test system: NCI-H226 lung
U251 CNS = test system: U251 CNS
UACC-62 melanoma = test system: UACC-62 melanoma

Compound | TGI (BT-549 breast) [µM] | TGI (HCC-2998 colon) [µM] | TGI (HT29 colon) [µM] | TGI (K-562 leukemia) [µM] | TGI (M14 melanoma) [µM] | TGI (MALME-3M melanoma) [µM] | TGI (MDA-MB-435) [µM] | TGI (NCI-H226 lung) [µM] | TGI (U251 CNS) [µM] | TGI (UACC-62 melanoma) [µM] | GI50 (BT-549 breast) [µM] | GI50 (HCC-2998 colon) [µM] | GI50 (HT29 colon) [µM] | GI50 (K-562 leukemia) [µM] | GI50 (M14 melanoma) [µM] | GI50 (MALME-3M melanoma) [µM] | GI50 (MDA-MB-435) [µM] | GI50 (NCI-H226 lung) [µM] | GI50 (U251 CNS) [µM] | GI50 (UACC-62 melanoma) [µM]
CN(C1=NS(=O)(=O)N=C(N(C)c2ccccc2)O1)c1ccccc1 | 39 | 36.7 | 54.3 | 50.4 | 38.9 | 49.7 | 30.4 | 33.1 | 36.8 | 28 |  |  |  |  |  |  |  |  |  | 
CCC1CCCCN1C(=S)N/N=C(\C)c1ccccn1 (centres undefined) | 2.72 | 2.76 | 4.69 | > 100 | 1.96 | 2.03 | 1.79 | 2.13 | 6.16 | 1.92 | 0.092 | 0.156 | < 0.0253 | 0.0238 | 0.0358 | < 0.0325 | 0.127 | 0.561 | < 0.0172 | 0.123
CCn1cc(C(=O)N/N=C/c2cccc(F)c2)c(=O)c2cc(F)c(N3CCNC(C)C3)c(F)c21 (centres undefined) | 3.05 | 3.53 | 2.98 | 2.4 | 3.37 | 3.23 | 3.12 | 4.13 | 3.03 | 3.2 | 1.62 | 1.86 | 1.55 | 1.04 | 1.82 | 1.72 | 1.71 | 1.97 | 1.61 | 1.77
COc1cc(C)[nH]c(=O)c1CN1CCc2c(Cl)cc([C@H](OC)C3COC3)c(Cl)c2C1=O | > 100 | > 100 | > 100 | > 100 | > 100 | > 100 | > 100 | > 100 | > 100 | > 100 | > 100 | > 100 | > 100 | > 100 | > 100 | > 100 | > 100 | > 100 | > 100 | > 100
C=C1SC(=Nc2ccccc2Cl)N(C(=O)c2sc3ccccc3c2Cl)C1(C)C | 49.2 | > 45 | 51.7 | > 37.4 | > 69.9 | 34.6 | 97 | > 74.2 | > 100 | > 100 | 10 | 8.54 | 14.2 | 4.51 | 21 | 2.01 | 17.3 | 5.52 | 4.12 | 9.24
O=C1c2cccc3cc([N+](=O)[O-])cc(c23)C(=O)N1CCN1CCCC1 | 7.55 | 2.74 | 7.6 |  | 2.08 | 1.07 | 2.99 | 0.632 |  | 1.71 | 1.56 | 0.582 | 0.593 | 0.534 | 0.451 | 0.18 | 1.31 | 0.193 | 0.315 | 0.322
CCCCNC(=O)Oc1ccc2c(=O)c3sc4c(=O)c5ccccc5c(=O)c4c3c(=O)c2c1 | 0.293 | 2.01 | 5.6 | 11.5 | 0.225 | 0.273 | 0.328 | 2.47 | 2.26 | 0.336 | 0.154 | 0.511 | 2.31 | 0.937 | 0.0976 | 0.117 | 0.172 | 1.12 | 1.02 | 0.17
CN(C)c1ccc2cc(-c3cc4c(oc3=O)-c3ccccc3OC4O)c(=O)oc2c1 (centres undefined) | 6.72 | 20.2 | 21.8 | > 25 | 9.31 | 14.6 | 15.9 | 7.08 | 15.7 | 8.53 | 2.11 | 6.99 | 5.73 | 5.2 | 4.73 | 5.98 | 3.67 | 3.28 | 5.85 | 4.08
Cc1cccc2c1O/C(=C\c1ncc([N+](=O)[O-])n1C)C2=O | 1.19 | 3.59 | 0.404 | 3.18 | 0.5 | 0.474 | 0.35 | 4.29 | 1.64 | 1.09 | 0.275 | 0.881 | 0.104 | 0.304 | 0.169 | 0.185 | 0.153 | 1.08 | 0.371 | 0.316
CC1OC(O[C@H]2/C=C/C=C/C=C/C=C/C=C/C=C/C=C/[C@H](C)[C@@H](O)[C@@H](C)[C@H](C)OC(=O)C[C@H](O)C[C@H](O)CC[C@@H](O)[C@H](O)C[C@H](O)C[C@]3(O)C[C@H](O)[C@@H](C(=O)O)[C@H](C2)O3)C(O)C(N)C1O (some centres undefined) | 68.1 | 61.2 | 56.4 | > 100 | 29.2 | 15.3 | 19.3 | > 100 | 40.6 | 43.9 | 20.6 |  |  |  | 11 | 5.47 | 7.94 |  | 14.3 | 21.8
